System: SW 1271 complex tumor spheroid viability
Experiment: Anticancer human tumor SW 1271 cell line growth inhibition;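 also: spheroids exposed to agents for seven days before readout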;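 as to viability, T/C: percent of DMSO vehicle control luminescence so 100% = vehicle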
Details: for IC50: curve of first compound; for viability, T/C: stronger effect = lower value
How it was run: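 Complex spheroids of malignant cells with endothelial cells and mesenchymal stem cells; agents alone or combined, from near clinical Cmax (or 10 microM if unknown) down in half-log steps, 0.25% DMSO final.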

[1] = second compound 0.003 µM, first compound 0.0316 µM
[2] = second compound 0.003 µM, first compound 0.1 µM
[3] = second compound 0.003 µM, first compound 0.316 µM
[4] = second compound 0.003 µM, first compound 1 µM
[5] = second compound 0.003 µM, first compound 3.16 µM
[6] = second compound 0.003 µM, first compound 10 µM
[7] = second compound 0.00949 µM, first compound 0.0316 µM
[8] = second compound 0.00949 µM, first compound 0.1 µM
[9] = second compound 0.00949 µM, first compound 0.316 µM
[10] = second compound 0.00949 µM, first compound 1 µM
[11] = second compound 0.00949 µM, first compound 3.16 µM
[12] = second compound 0.00949 µM, first compound 10 µM
[13] = second compound 0.03 µM, first compound 0.0316 µM
[14] = second compound 0.03 µM, first compound 0.1 µM
[15] = second compound 0.03 µM, first compound 0.316 µM
[16] = second compound 0.03 µM, first compound 1 µM
[17] = second compound 0.03 µM, first compound 3.16 µM
[18] = second compound 0.03 µM, first compound 10 µM
[19] = second compound 0.0949 µM, first compound 0.0316 µM
[20] = second compound 0.0949 µM, first compound 0.1 µM
[21] = second compound 0.0949 µM, first compound 0.316 µM
[22] = second compound 0.0949 µM, first compound 1 µM
[23] = second compound 0.0949 µM, first compound 3.16 µM
[24] = second compound 0.0949 µM, first compound 10 µM
[25] = second compound 0.3 µM, first compound 0.0316 µM
[26] = second compound 0.3 µM, first compound 0.1 µM
[27] = second compound 0.3 µM, first compound 0.316 µM
[28] = second compound 0.3 µM, first compound 1 µM
[29] = second compound 0.3 µM, first compound 3.16 µM
[30] = second compound 0.3 µM, first compound 10 µM

Work on `CC(C)n1c(=O)n(C)c2cnc3cc(F)c(-c4ccc(OCCCN5CCCCC5)nc4)cc3c21` + CC[C@@]1(O)C(=O)OCc2c1cc1n(c2=O)Cc2cc3c(CN(C)C)c(O)ccc3nc2-1 yielded an IC50 (second compound 0.003 µM) of under 31.6 nM, an IC50 (second compound 0.00949 µM) of under 31.6 nM and an IC50 (second compound 0.03 µM) of under 31.6 nM. The IC50 (second compound 0.0949 µM) was under 31.6 nM, the IC50 (second compound 0.3 µM) was under 31.6 nM and the viability, T/C [1] was 28.2%. For the same molecule, the viability, T/C [2] was 26.8%, the viability, T/C [3] was 25% and the viability, T/C [4] was 27.7%. The viability, T/C [5] was 19.3%, the viability, T/C [6] was 7.91% and the viability, T/C [7] was 15.9%. For the same molecule, the viability, T/C [8] was 17.9%, the viability, T/C [9] was 14.5% and the viability, T/C [10] was 12.2%. It also gave a viability, T/C [11] of 11.3%, a viability, T/C [12] of 5.27% and a viability, T/C [13] of 20.4%. It also gave a viability, T/C [14] of 17.7%, a viability, T/C [15] of 16% and a viability, T/C [16] of 15.8%. The viability, T/C [17] was 8.12%, the viability, T/C [18] was 3.67% and the viability, T/C [19] was 23.9%. The viability, T/C [20] was 24.6%, the viability, T/C [21] was 23.2% and the viability, T/C [22] was 19.8%. For the same molecule, the viability, T/C [23] was 7.87%, the viability, T/C [24] was 3.44% and the viability, T/C [25] was 14.6%. The viability, T/C [26] was 13.2%, the viability, T/C [27] was 16.4% and the viability, T/C [28] was 16.1%. For the same molecule, the viability, T/C [29] was 7.25% and the viability, T/C [30] was 4.47%.

Molecule `CC1COCCN1c1cc(-c2ccnn2C)c2ccnc(-c3ccn[nH]3)c2n1` (stereo not given) + CC[C@@]1(O)C(=O)OCc2c1cc1n(c2=O)Cc2cc3c(CN(C)C)c(O)ccc3nc2-1 has an IC50 (second compound 0.003 µM) of under 31.6 nM, an IC50 (second compound 0.00949 µM) of under 31.6 nM and an IC50 (second compound 0.03 µM) of under 31.6 nM. It also gave an IC50 (second compound 0.0949 µM) of under 31.6 nM, an IC50 (second compound 0.3 µM) of under 31.6 nM and a viability, T/C [1] of 26%. For the same molecule, the viability, T/C [2] was 11.3%, the viability, T/C [3] was 4.59% and the viability, T/C [4] was 2.3%. It also gave a viability, T/C [5] of 1.84%, a viability, T/C [6] of 1.92% and a viability, T/C [7] of 6.62%. It also gave a viability, T/C [8] of 4.56%, a viability, T/C [9] of 3.33% and a viability, T/C [10] of 2.14%. The viability, T/C [11] was 1.49%, the viability, T/C [12] was 1.95% and the viability, T/C [13] was 6.54%. It also gave a viability, T/C [14] of 4.67%, a viability, T/C [15] of 3.37% and a viability, T/C [16] of 2.33%. The viability, T/C [17] was 1.73%, the viability, T/C [18] was 1.79% and the viability, T/C [19] was 8.42%. It also gave a viability, T/C [20] of 6.2%, a viability, T/C [21] of 4.79% and a viability, T/C [22] of 2.58%. The viability, T/C [23] was 1.54%, the viability, T/C [24] was 1.64% and the viability, T/C [25] was 5.08%. The viability, T/C [26] was 3.04%, the viability, T/C [27] was 2.79% and the viability, T/C [28] was 2.96%. For the same molecule, the viability, T/C [29] was 1.02% and the viability, T/C [30] was 0.73%.

Molecule `COc1cc(C)[nH]c(=O)c1CN1CCc2c(Cl)cc(C(OC)C3COC3)c(Cl)c2C1=O` (stereo not given) + CC[C@@]1(O)C(=O)OCc2c1cc1n(c2=O)Cc2cc3c(CN(C)C)c(O)ccc3nc2-1 has an IC50 (second compound 0.003 µM) of over 10000 nM, an IC50 (second compound 0.00949 µM) of over 10000 nM and an IC50 (second compound 0.03 µM) of under 31.6 nM. The IC50 (second compound 0.0949 µM) was under 31.6 nM, the IC50 (second compound 0.3 µM) was under 31.6 nM and the viability, T/C [1] was 90.4%. It also gave a viability, T/C [2] of 94.9%, a viability, T/C [3] of 93.3% and a viability, T/C [4] of 93.3%. The viability, T/C [5] was 85.3%, the viability, T/C [6] was 75.2% and the viability, T/C [7] was 73.6%. For the same molecule, the viability, T/C [8] was 70.4%, the viability, T/C [9] was 69.6% and the viability, T/C [10] was 57.3%. It also gave a viability, T/C [11] of 64.9%, a viability, T/C [12] of 56.5% and a viability, T/C [13] of 29.6%. The viability, T/C [14] was 28.5%, the viability, T/C [15] was 34.3% and the viability, T/C [16] was 31.1%. It also gave a viability, T/C [17] of 32.4%, a viability, T/C [18] of 31% and a viability, T/C [19] of 28.8%. For the same molecule, the viability, T/C [20] was 30.5%, the viability, T/C [21] was 29.5% and the viability, T/C [22] was 32.5%. For the same molecule, the viability, T/C [23] was 33.1%, the viability, T/C [24] was 23.5% and the viability, T/C [25] was 14.2%. The viability, T/C [26] was 16.1%, the viability, T/C [27] was 18.8% and the viability, T/C [28] was 16.7%. For the same molecule, the viability, T/C [29] was 13.7% and the viability, T/C [30] was 10.9%.

Molecule `COc1ccc([C@@H](O)c2cc(-c3ncnc4cc(N5CCOCC5)ccc34)c(F)cc2Cl)nn1` + CC[C@@]1(O)C(=O)OCc2c1cc1n(c2=O)Cc2cc3c(CN(C)C)c(O)ccc3nc2-1 has an IC50 (second compound 0.003 µM) of 1230 nM, an IC50 (second compound 0.00949 µM) of 103 nM and an IC50 (second compound 0.03 µM) of under 31.6 nM. The IC50 (second compound 0.0949 µM) was under 31.6 nM, the IC50 (second compound 0.3 µM) was under 31.6 nM and the viability, T/C [1] was 83.3%. It also gave a viability, T/C [2] of 85.1%, a viability, T/C [3] of 75.2% and a viability, T/C [4] of 54.3%. It also gave a viability, T/C [5] of 26.9%, a viability, T/C [6] of 6.38% and a viability, T/C [7] of 57.9%. For the same molecule, the viability, T/C [8] was 53%, the viability, T/C [9] was 37.9% and the viability, T/C [10] was 29.6%. For the same molecule, the viability, T/C [11] was 19.6%, the viability, T/C [12] was 6.43% and the viability, T/C [13] was 31.5%. The viability, T/C [14] was 31.1%, the viability, T/C [15] was 28.8% and the viability, T/C [16] was 28.6%. The viability, T/C [17] was 19.9%, the viability, T/C [18] was 6.27% and the viability, T/C [19] was 27.9%. It also gave a viability, T/C [20] of 27.6%, a viability, T/C [21] of 25% and a viability, T/C [22] of 25.9%. For the same molecule, the viability, T/C [23] was 21.7%, the viability, T/C [24] was 3.71% and the viability, T/C [25] was 13%. For the same molecule, the viability, T/C [26] was 14.8%, the viability, T/C [27] was 15% and the viability, T/C [28] was 10.2%. The viability, T/C [29] was 1.72% and the viability, T/C [30] was 0.2%.

`[2H]c1nc(C)nc([2H])c1-c1cc(NC[C@@H](C)c2cccc3c(C(=O)NC)ccnc23)ncn1` + CC[C@@]1(O)C(=O)OCc2c1cc1n(c2=O)Cc2cc3c(CN(C)C)c(O)ccc3nc2-1 was tested, and the IC50 (second compound 0.003 µM) was over 10000 nM, the IC50 (second compound 0.00949 µM) was 1350 nM and the IC50 (second compound 0.03 µM) was under 31.6 nM. It also gave an IC50 (second compound 0.0949 µM) of under 31.6 nM, an IC50 (second compound 0.3 µM) of under 31.6 nM and a viability, T/C [1] of 94.2%. The viability, T/C [2] was 90.5%, the viability, T/C [3] was 95.4% and the viability, T/C [4] was 94.6%. The viability, T/C [5] was 88.9%, the viability, T/C [6] was 79.9% and the viability, T/C [7] was 58.9%. The viability, T/C [8] was 51.1%, the viability, T/C [9] was 58.7% and the viability, T/C [10] was 48.3%. For the same molecule, the viability, T/C [11] was 47.9%, the viability, T/C [12] was 39.4% and the viability, T/C [13] was 36.5%. The viability, T/C [14] was 35.3%, the viability, T/C [15] was 34.5% and the viability, T/C [16] was 36.6%. For the same molecule, the viability, T/C [17] was 34.2%, the viability, T/C [18] was 31.6% and the viability, T/C [19] was 34%. The viability, T/C [20] was 32.6%, the viability, T/C [21] was 30.1% and the viability, T/C [22] was 31.4%. The viability, T/C [23] was 33.1%, the viability, T/C [24] was 26% and the viability, T/C [25] was 19.9%. The viability, T/C [26] was 17.5%, the viability, T/C [27] was 15.1% and the viability, T/C [28] was 17%. It also gave a viability, T/C [29] of 14.2% and a viability, T/C [30] of 8.53%.
